According to US20220107328A1, “METHODS OF TREATING LIVER DISEASES” (Camp4 Therapeutics Corporation, priority 2018, published 2022):

Experiments:
PNPLA3 mRNA [1] = test: qRT-PCR of PNPLA3 mRNA in compound-treated primary human hepatocytes; settings: for PNPLA3 mRNA expression level over time (in words) / PNPLA3 mRNA: 3 μM, normalized to GUSB; for PNPLA3 mRNA expression level over time (in words): 35 min to 20 hrs; for Primary Hepatocytes 4178 PNPLA3 (fold change in mRNA expression): donor 4178, 3 μM; for Primary Hepatocytes 4178 PNPLA3 (fold change in mRNA expression) / Primary Hepatocytes 4282 PNPLA3 (fold change in mRNA expression): relative to GUSB; for Primary Hepatocytes 4282 PNPLA3 (fold change in mRNA expression): donor 4282, 3 μM; for PNPLA3 mRNA: time point not stated; for Relative PINPLA3 mRNA: hepatocytes
PNPLA3 expression = test: RNA-seq of compound-treated primary human hepatocytes; format: cell-based; settings: for Fold change (Log 2) vs untreated: PNPLA3 expression, RNA-seq
Method: Cryopreserved hepatocytes were cultured in plating media for 16 hours, transferred to maintenance media for 4 hours. Cultured on serum-free media for 2 hours, then a compound was added. The hepatocytes were maintained on the serum-free media for 16 hours prior to gene expression analysis.
Human hepatocytes cultured as described above were plated in 24-well format, adding 375,000 cells per well in a volume of 500 μl plating medium. Four hours before treatment, cells were washed with PBS and the medium was changed to either: fresh maintenance medium (complete) or modified maintenance medium.
Compound stocks were prepared at 1000× final concentration and added in a 2-step dilution to the medium to reduce risk of a compound precipitating out of solution when added to the cells, and to ensure reasonable pipetting volumes. One at a time, each compound was first diluted 10-fold in warm (about 37° C.) modified maintenance medium (initial dilution=ID), mixed by vortexing, and the ID was diluted 100-fold into the cell culture (e.g. 5.1 μl into 1 well of a 24-well plate containing 0.5 mL medium). The plate was mixed by carefully swirling and after all wells were treated and returned to the incubator overnight. If desired, separate plates/wells were treated with vehicle-only controls and/or positive controls. If using multi-well plates, controls were included on each plate. After about 18 hours, cells were harvested for further analysis, e.g., ChIP-seq, RNA-seq, ATAC-seq, etc.
The expression level of each gene was quantified with normalized FPKM (fragments per kilobase of exon per million mapped fragments). The differentially expressed genes were called using Cuffdiff v2.2.1 with q value<0.01 and log2 fold change>=1 or <=−1.
(§3) To identify small molecules that modulate PNPLA3, primary human hepatocytes were prepared as a monoculture, and at least one small molecule compound was applied to the cells.
(§4) RNA-seq was performed to determine the effects of the compounds on PNPLA3 expression in hepatocytes. Fold change was calculated by dividing the level of expression in the cell system that had been perturbed by the level of expression in an unperturbed system. Changes in expression having a p-value≤0.05 were considered significant.

PCSK9 mRNA = test: qRT-PCR of PCSK9 mRNA in primary hepatocytes; format: cell-based, human; settings: donor 4178, 3 μM, relative to GUSB
[2] = test system: phosphorylated 4EBP1 (p4EBP1c (37/46)/4EBP1c); test: Western blot of phosphorylated 4EBP1 in human hepatocytes; format: cell-based; settings: 3 μM, mTORC1 pathway, time point not stated
COL1A1 mRNA = test: qRT-PCR of COL1A1 mRNA in human primary hepatic stellate cells; format: cell-based; settings: for Primary Stellate cells COL1A1 (fold change in mRNA expression): 3 μM, relative to GAPDH; for Relative COL1A1 mRNA levels RQ: hepatic stellate cells
[3] = test system: phosphorylated S6 (pS6/S6); test: Western blot of phosphorylated S6 in human hepatocytes; format: cell-based; settings: 3 μM; for phosphorylated S6 (pS6/S6) over time (in words): 35 min to 20 hrs, relative to DMSO control; for pS6/S6: human hepatocytes, mTORC1 pathway, time point not stated
Method: (§1) Levels of phosphorylated S6, AKT, and NDRG1 proteins were determined as compared to total S6, AKT, and NDRG1 protein. PNPLA3 mRNA expression was quantified and normalized to housekeeping gene GUSB.

[4] = test system: phosphorylated AKT (pAKT/AKT); test: Western blot of phosphorylated AKT in human hepatocytes; format: cell-based; settings: 3 μM; for phosphorylated AKT (pAKT/AKT) over time (in words): 35 min to 20 hrs, relative to DMSO control; for pAKT (473)/AKT: human hepatocytes, mTORC2 pathway, time point not stated
Method: as §1

[5] = test system: phosphorylated NDRG1 (pNDRG1/NDRG1); test: Western blot of phosphorylated NDRG1 in human hepatocytes; format: cell-based; settings: 3 μM, mTORC2 pathway, time point not stated
Method: as §1

PNPLA3 mRNA [6] = test: qRT-PCR of PNPLA3 mRNA in human primary hepatic stellate cells; format: cell-based; settings: for Primary Stellate cells PNPLA3 (fold change in mRNA expression): 3 μM, relative to GAPDH; for Relative PNPLA3 mRNA levels RQ: hepatic stellate cells
ACTA2 mRNA = test: qRT-PCR of fibrosis related genes in stellate cells, ACTA2; format: cell-based, human; settings: stellate cells P7, 0.5 μM, 18 hours
Method: (§2) Stellate cells P7 were treated with 0.5 μM of each of the indicated compounds for 18 hours. Cells were processed for RNA extraction and qRT-PCR as previously described. The assay was repeated in triplicate.

MMP2 mRNA = test: qRT-PCR of fibrosis related genes in stellate cells, MMP2; format: cell-based, human; settings: stellate cells P7, 0.5 μM, 18 hours
Method: as §2

TIM2 mRNA = test: qRT-PCR of fibrosis related genes in stellate cells, TIM2; format: cell-based, human; settings: stellate cells P7, 0.5 μM, 18 hours
Method: as §2

COL1A2 mRNA = test: qRT-PCR of fibrosis related genes in stellate cells, COL1A2; format: cell-based, human; settings: stellate cells P7, 0.5 μM, 18 hours
Method: as §2

PNPLA3 mRNA [7] = test: qRT-PCR of PNPLA3 mRNA in compound-treated mouse hepatocytes; format: cell-based; settings: mouse hepatocytes, 1 μM, normalized to ACTB
TGFB1 mRNA = test: qRT-PCR of fibrosis related genes in stellate cells, TGFB1; format: cell-based, human; settings: stellate cells P7, 0.5 μM, 18 hours
Method: as §2

mouse hepatocytes = test: Cytotoxicity in mouse hepatocytes; format: cell-based; settings: 10 μM
PNPLA5 expression = test: RNA-seq of compound-treated primary human hepatocytes, PNPLA5; format: cell-based
Method: as §3, §4

[8] = test system: multiple human tumor cell types; settings: combined with cytotoxic, hormonal, and targeted agents; cited from earlier work
[9] = stellate cells P7, 0.5 μM, 18 hours

COc1cc(Nc2ncc(F)c(Nc3ccc4c(n3)N(COP(=O)([O-])[O-])C(=O)C(C)(C)O4)n2)cc(OC)c1OC.[Na+].[Na+] [R788, fostamatinib disodium hexahydrate]
Relative PNPLA3 mRNA levels (PNPLA3 mRNA [1]; Syk pathway inhibitors, 10 μM, human hepatocytes, normalized to B2M, mean of three replicates ± standard deviation): 0.77 ± 0.02
Fold change (Log 2) vs untreated (PNPLA3 expression): −1.38

Cc1nc(NC(=O)N2CCC[C@H]2C(N)=O)sc1-c1ccnc(C(C)(C)C(F)(F)F)c1 [Alpelisib (BYL719), Alpelisib]
Primary Hepatocytes 4178 PCSK9 (fold change in mRNA expression) (PCSK9 mRNA): 0.67
p4EBP1c (37/46)#/4EBP1c [2]: 0.61
Primary Stellate cells COL1A1 (fold change in mRNA expression) (COL1A1 mRNA): 1.16
phosphorylated S6 (pS6/S6) over time (in words) [3]: increased at 2 hours, then decreased
pS6/S6 [3]: 1.11
PNPLA3 mRNA expression level over time (in words) (PNPLA3 mRNA [1]): largely did not change
PNPLA3 mRNA expression level over time (in words) (PNPLA3 mRNA [1]; listed as Alpenisib): did not lead to decreased PNPLA3 expression
Primary Hepatocytes 4178 PNPLA3 (fold change in mRNA expression) (PNPLA3 mRNA [1]): 0.80
Primary Hepatocytes 4282 PNPLA3 (fold change in mRNA expression) (PNPLA3 mRNA [1]): 0.69
PNPLA3 mRNA (PNPLA3 mRNA [1]; human hepatocytes): 0.971
phosphorylated AKT (pAKT/AKT) over time (in words) [4]: largely did not change
pAKT (473)/AKT [4]: 0.34
p-NDRG1/NDRG1 [5]: 1.11
Primary Stellate cells PNPLA3 (fold change in mRNA expression) (PNPLA3 mRNA [6]): 0.94

CC(C)n1nc(-c2ccc3oc(N)nc3c2)c2c(N)ncnc21 [INK-128]
Primary Hepatocytes 4178 PCSK9 (fold change in mRNA expression) (PCSK9 mRNA): 0.98
Relative mRNA ACTA2 (ACTA2 mRNA): 0.61 ± 0.02
Relative mRNA MMP2 (MMP2 mRNA): 1.53 ± 0.05
Primary Stellate cells COL1A1 (fold change in mRNA expression) (COL1A1 mRNA): 0.47
Relative COL1A1 mRNA levels RQ (COL1A1 mRNA; 0.01 μM): 1.05
Relative COL1A1 mRNA levels RQ (COL1A1 mRNA; 0.1 μM): 0.27
Relative COL1A1 mRNA levels RQ (COL1A1 mRNA; 1 μM): 0.32
Relative COL1A1 mRNA levels RQ (COL1A1 mRNA; 10 μM): 0.21
Relative mRNA COL1A1 (COL1A1 mRNA; [9]): 0.23 ± 0.01
Relative mRNA TIMP2 (TIM2 mRNA): 1.26 ± 0.01
Relative mRNA COL1A2 (COL1A2 mRNA): 0.30 ± 0.01
Relative PNPLA3 mRNA levels (PNPLA3 mRNA [7]): 0.30 ± 0.14
Primary Hepatocytes 4178 PNPLA3 (fold change in mRNA expression) (PNPLA3 mRNA [1]): 1.50
Primary Hepatocytes 4282 PNPLA3 (fold change in mRNA expression) (PNPLA3 mRNA [1]): 1.63
Relative mRNA TGFB1 (TGFB1 mRNA): 1.20 ± 0.02
Primary Stellate cells PNPLA3 (fold change in mRNA expression) (PNPLA3 mRNA [6]): 0.56
Relative PNPLA3 mRNA levels RQ (PNPLA3 mRNA [6]; 0.01 μM): 0.40
Relative PNPLA3 mRNA levels RQ (PNPLA3 mRNA [6]; 0.1 μM): 0.28
Relative PNPLA3 mRNA levels RQ (PNPLA3 mRNA [6]; 1 μM): 0.58
Relative PNPLA3 mRNA levels RQ (PNPLA3 mRNA [6]; 10 μM): 0.58
Relative mRNA PNPLA3 (PNPLA3 mRNA [6]; [9]): 0.28 ± 0.01

CS(=O)(=O)N1CCc2c(-c3cnc(N)nc3)nc(N3CCOCC3)nc21 [CH5132799]
Primary Hepatocytes 4178 PCSK9 (fold change in mRNA expression) (PCSK9 mRNA): 0.51
p4EBP1c (37/46)#/4EBP1c [2]: 0.40
Primary Stellate cells COL1A1 (fold change in mRNA expression) (COL1A1 mRNA): 0.81
phosphorylated S6 (pS6/S6) over time (in words) [3]: decreased at 1 hour
pS6/S6 [3]: 0.06
PNPLA3 mRNA expression level over time (in words) (PNPLA3 mRNA [1]): decreased levels of PNPLA3 expression after 3 hours
PNPLA3 mRNA expression level over time (in words) (PNPLA3 mRNA [1]; listed as CH51332799): down regulated PNPLA3 gene expression
Primary Hepatocytes 4178 PNPLA3 (fold change in mRNA expression) (PNPLA3 mRNA [1]): 0.49
Primary Hepatocytes 4282 PNPLA3 (fold change in mRNA expression) (PNPLA3 mRNA [1]): 0.60
Relative PINPLA3 mRNA (PNPLA3 mRNA [1]; 0.1 uM): 0.940
Relative PINPLA3 mRNA (PNPLA3 mRNA [1]; 0.3 uM): 0.870
Relative PINPLA3 mRNA (PNPLA3 mRNA [1]; 1 uM): 0.743
Relative PINPLA3 mRNA (PNPLA3 mRNA [1]; 3 uM): 0.491
PNPLA3 mRNA (PNPLA3 mRNA [1]; human hepatocytes): 0.511
phosphorylated AKT (pAKT/AKT) over time (in words) [4]: increased at 3 hours and decreased to pre-treatment levels at 4.5 hours
pAKT (473)/AKT [4]: 0.22
p-NDRG1/NDRG1 [5]: 0.47
Primary Stellate cells PNPLA3 (fold change in mRNA expression) (PNPLA3 mRNA [6]): 0.56

C1=C/COCc2cc(ccc2OCCN2CCCC2)Nc2nccc(n2)-c2cccc(c2)COC/1 [Pacritinib]
cytotoxicity / tolerability (mouse hepatocytes): slight cytotoxicity

Activin
PNPLA5 expression in the RNA-seq study (in words) (PNPLA5 expression): best upregulators of PNPLA3 and PNPLA5
PNPLA3 expression in the RNA-seq study (in words) (PNPLA3 expression): best upregulators of PNPLA3 and PNPLA5

CN1C(=O)c2sccc2N(C)c2nc(Nc3ccc(S(N)(=O)=O)cc3)ncc21 [XMU-MP-1]
Fold change (Log 2) vs untreated (PNPLA3 expression): −0.66

C[C@@]1(C(=O)Nc2ccc(F)nc2)CCCN1c1nc(Nc2cc(C3CC3)[nH]n2)c2cccn2n1 [BMS-754807]
combination index [8]: < 1.0

NS(=O)(=O)C#Cc1ccccc1 [Pifithrin-μ, 2-Phenylethynesulfonamide]
Fold change (Log 2) vs untreated (PNPLA3 expression): −0.68

COc1nc(N)nc2c1ncn2[C@@H]1O[C@H](COP(=O)(N[C@@H](C)C(=O)OCC(C)(C)C)Oc2cccc3ccccc23)[C@@H](O)[C@@]1(C)O (some centres unmarked) [BMS-986094]
Fold change (Log 2) vs untreated (PNPLA3 expression): −0.69

CO[C@H]1C[C@@H]2CC[C@@H](C)[C@@](O)(O2)C(=O)C(=O)N2CCCC[C@H]2C(=O)O[C@H]([C@H](C)C[C@@H]2CC[C@@H](O)[C@H](OC)C2)CC(=O)[C@H](C)/C=C(\C)[C@@H](O)[C@@H](OC)C(=O)[C@H](C)C[C@H](C)/C=C/C=C/C=C/1C [rapamycin]
Primary Hepatocytes 4178 PCSK9 (fold change in mRNA expression) (PCSK9 mRNA): 1.37
p4EBP1c (37/46)#/4EBP1c [2]: 0.49
Primary Stellate cells COL1A1 (fold change in mRNA expression) (COL1A1 mRNA): 1.43
pS6/S6 [3]: 0.07
Primary Hepatocytes 4178 PNPLA3 (fold change in mRNA expression) (PNPLA3 mRNA [1]): 1.50
Primary Hepatocytes 4282 PNPLA3 (fold change in mRNA expression) (PNPLA3 mRNA [1]): 1.10
PNPLA3 mRNA (PNPLA3 mRNA [1]; human hepatocytes): 1.2
pAKT (473)/AKT [4]: 2.55
p-NDRG1/NDRG1 [5]: 1.76
Primary Stellate cells PNPLA3 (fold change in mRNA expression) (PNPLA3 mRNA [6]): 0.49

B1: GDF2 (protein, UniProt Q9UK05 320-429, looked up)
Growth/differentiation factor …: SAGAGSHCQKTSLRVNFEDIGWDSWIIAPKEYEAYECKGGCFFPLADDVTPTKHAIVQTLVHLKFPTKVGKACCVPTKLSPISVLYKDDMGVPTLKYHYEGMSVAECGCR
PNPLA5 expression in the RNA-seq study (in words) (PNPLA5 expression): best upregulators of PNPLA3 and PNPLA5
PNPLA3 expression in the RNA-seq study (in words) (PNPLA3 expression): best upregulators of PNPLA3 and PNPLA5
